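Cells were grown in 96-well plates and exposed to each compound for 48 hours at five concentrations; endpoints were interpolated linearly between bracketing concentrations, or set to the highest concentration if not reached. At the GI50, growth is halved. TGI marks complete inhibition of growth.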
Columns and labels:
Assay in all cases: inhibition of tumour cell growth, NCI panel, 48 h
NCI-H460 lung = tested on: NCI-H460 lung
PC-3 prostate = tested on: PC-3 prostate
NCI-H522 lung = tested on: NCI-H522 lung
NCI/ADR-RES ovarian = tested on: NCI/ADR-RES ovarian
CCRF-CEM leukemia = tested on: CCRF-CEM leukemia
HOP-92 NSCLC = tested on: HOP-92 NSCLC
MOLT-4 leukemia = tested on: MOLT-4 leukemia
SNB-19 CNS = tested on: SNB-19 CNS
OVCAR-5 ovarian = tested on: OVCAR-5 ovarian
RXF 393 renal = tested on: RXF 393 renal

| Structure (SMILES) | TGI (NCI-H460 lung) [µM] | TGI (PC-3 prostate) [µM] | TGI (NCI-H522 lung) [µM] | TGI (NCI/ADR-RES ovarian) [µM] | TGI (CCRF-CEM leukemia) [µM] | TGI (HOP-92 NSCLC) [µM] | TGI (MOLT-4 leukemia) [µM] | TGI (SNB-19 CNS) [µM] | TGI (OVCAR-5 ovarian) [µM] | TGI (RXF 393 renal) [µM] | GI50 (NCI-H460 lung) [µM] |
| --- | --- | --- | --- | --- | --- | --- | --- | --- | --- | --- | --- |
| Cc1cc(S(=O)(=O)N=C2Nc3cccc4cccc(c34)N2)c(S)cc1Cl | > 100 | > 100 | > 100 | > 100 | > 100 | > 100 | > 100 | > 100 | > 100 | > 100 | – |
| O=C1c2cc3c(cc2CC12Cc1ccc4c(c1C2=O)CCC4)CCC3 (stereo unspecified) | > 100 | > 100 | > 100 | > 100 | > 100 | > 100 | > 100 | > 100 | > 100 | > 100 | – |
| COC1(CC[C@H](C)COC2OC(CO)C(O)C(O)C2O)O[C@H]2C[C@H]3[C@@H]4CC=C5C[C@@H](OC6OC(CO)C(OC7OC(C)C(O)C(O)C7O)C(O)C6OC6OC(C)C(O)C(O)C6O)CC[C@]5(C)[C@H]4CC[C@]3(C)[C@H]2[C@@H]1C (stereo partly specified) | 15.1 | 11.9 | 5.31 | 11.1 | > 37.1 | 6.2 | > 100 | 12.4 | > 35.5 | 18.4 | 4.39 |
| CSc1nc(Cl)c2c(n1)Sc1nc3ccccc3n1C2O (stereo unspecified) | > 74.6 | > 100 | 7.28 | > 24.4 | 24.6 | 26.6 | > 100 | 97.1 | > 45 | 20.8 | – |
| CCOC(=O)/C=C/CCC(C)(C)COC(C)=O | > 10 | > 10 | > 10 | > 10 | > 10 | > 10 | > 10 | > 10 | > 10 | > 10 | – |
| COc1ccc2c(c1OC)C(=O)N1C2=Cc2c(cc3c(c2OC)OCO3)CC1N(C)C (stereo unspecified) | > 100 | > 100 | > 100 | > 100 | > 100 | > 100 | > 100 | > 100 | > 100 | > 100 | – |
| Cc1c(C(=O)NNc2ccccc2)n2c(=S)[nH]nc2c2ccccc12 | > 100 | > 100 | > 100 | > 100 | > 100 | > 100 | > 100 | > 100 | > 100 | > 100 | – |
| CSc1nc(=O)c2nc(-c3cccs3)c(-c3cccs3)nc2n1C | > 100 | > 100 | 89.1 | > 100 | > 100 | 83.5 | > 100 | > 100 | > 100 | 59.6 | – |
| CC1=C(C)SC(=C2Sc3c(n(C)c(=O)n(C)c3=O)S2)S1 | > 100 | > 100 | > 100 | > 100 | > 100 | > 100 | > 100 | > 100 | > 100 | > 100 | – |
| O=C(c1ccc([N+](=O)[O-])cc1)N1CCCC1 | > 100 | > 100 | > 100 | > 100 | > 100 | > 100 | > 100 | > 100 | > 100 | > 100 | – |
| NC(=O)c1ccc[n+](C2=C([O-])c3ccccc3C(=O)/C2=N\S(=O)(=O)c2ccccc2)c1 | 47.9 | 30.2 | 24.1 | 36.3 | > 100 | 26.5 | 81.5 | 29.9 | 33.3 | 29.5 | – |
| O=c1c2cc([N+](=O)[O-])ccc2oc2nc3n(c(=O)c12)CCCS3 | > 100 | > 100 | > 100 | > 100 | > 100 | > 100 | > 100 | > 100 | > 100 | > 100 | – |
| CCc1nc2c(c(N(C)C)c1C(=O)OC)CCc1ccccc1-2 | > 100 | 40 | 45.6 | > 100 | 9.43 | > 100 | 23 | > 100 | > 100 | 73.8 | – |
| CC1(C)C=C(/C=C2/N(S(=O)(=O)C(F)(F)F)C(/C=C3/N(S(=O)(=O)C(F)(F)F)C(C)(C#N)CC3(C)C)=CC2(C)C)N=C1/C=C1/CC(C)(C)C(=O)N1 (stereo unspecified) | > 100 | > 100 | 27.9 | > 100 | 52.8 | 95.3 | > 100 | > 100 | > 100 | 81.3 | – |
| Cc1nc2c(=O)n(-c3ccccc3)c(=O)n(-c3ccccc3)c2o1 | > 100 | > 100 | > 100 | > 100 | > 100 | > 100 | > 100 | > 100 | > 100 | > 100 | – |
| COc1ccc(-c2cc3cc(Cl)cc(Cl)c3oc2=O)cc1OC | > 100 | > 100 | > 100 | > 100 | > 100 | > 100 | > 100 | > 100 | > 100 | 75.8 | – |
| CCN(CC)C(=S)N/N=C(/c1ccccc1)c1ccccn1 | 0.385 | > 100 | > 100 | 14.3 | 1.09 | > 100 | > 100 | > 100 | 22.9 | 8.63 | – |

— PubChem BioAssay (NCI)
